For 43 compounds, inhibition results are on record in patent publication US8097759B2, “Inflammatory cytokine release inhibitor” (Institute of Medicinal Molecular Design, Inc., priority 2000, dated 2012).

In this assay the test system is NF-κB activation. The assay can be described thus: NF-κB activation reporter assay (pNFκB-Luc luciferase) under TNF-α stimulation. The class given is cell-based, human. The conditions noted are these: Homo sapiens, HepG2 or HeLa cells, TNF-α 40 ng/ml, 4 hours, read-out: The rate of inhibitory activity against NF-κB activation (%); for inhibition at 1 µg/mL: Concentration of the agent: 1 μg/mL; for inhibition at 10 µg/mL: Concentration of the agent: 10 μg/mL. The procedure:
Using a transfection reagent (Effectene; QIAGEN), the human hepatoma cell strain HepG2 or the human hysterocarcinoma cell strain HeLa was transfected with the firefly luciferase gene (Luc) contained plasmid (pNF κB-Luc Reporter Plasmid; […]) which contained oligonucleotide having five tandem copies of NF-κB binding sequences ([…]) on a upstream region of Luc, according to the QUAGEN's protocol and it was incuvated for 6-24 hours. After addition of TNF-α (40 ng/ml) with or without the test compound, the cells were incuvated for 4 hours, and intracellular luciferase activity was measured with PicaGene LT (TOYO INK MFG Co., Ltd.) and chemical luminescence measurement device ([…]luor Plus; TECAN). The inhibition ratio was measured as a ratio to the value of the luciferase activity without the test compound.
(In general: Reporter assays use an easily measured gene product as a stand-in for the process of interest.)

Consider `O=C(Nc1cc(C(F)(F)F)ccc1Cl)c1cc(Br)ccc1O` [Compound 114], for which the inhibition at 1 µg/mL turned out to be 88.9% and the inhibition at 10 µg/mL came out at 94.1%.
The matching figures for `O=C(Nc1ccc([N+](=O)[O-])c(C(F)(F)F)c1)c1cc(Cl)ccc1O` [Compound 115]: 89% and 94.3%.
As for `O=C(Nc1cc(C(F)(F)F)ccc1[N+](=O)[O-])c1cc(Cl)ccc1O` [Compound 116], the inhibition at 1 µg/mL is 86.3% and the inhibition at 10 µg/mL came out at 96.7%.
Take `Cc1c(NC(=O)c2cc(Cl)ccc2O)cccc1C(F)(F)F` [Compound 118]: the inhibition at 1 µg/mL is 94.1% and the inhibition at 10 µg/mL is 96.3%.
For `Cc1ccc(NC(=O)c2cc(Cl)ccc2O)cc1C(F)(F)F` [Compound 119] the same measures were 88.1% and 91.7%.
Take `Cc1ccc(C(F)(F)F)cc1NC(=O)c1cc(Cl)ccc1O` [Compound 120]: the inhibition at 1 µg/mL came out at 93.8% and the inhibition at 10 µg/mL came to 97.9%.
The matching figures for `COc1ccc(NC(=O)c2cc(Cl)ccc2O)cc1C(F)(F)F` [Compound 121]: 85.5% and 96.5%.
Regarding `COc1cc(NC(=O)c2cc(Br)ccc2O)cc(C(F)(F)F)c1` [Compound 122], the inhibition at 1 µg/mL stood at 84.5% and the inhibition at 10 µg/mL stood at 97.2%.
Turning to `COc1ccc(C(F)(F)F)cc1NC(=O)c1cc(Br)ccc1O` [Compound 123], the inhibition at 1 µg/mL was found to be 76.6% and the inhibition at 10 µg/mL was 93.4%.
As to `CSc1ccc(C(F)(F)F)cc1NC(=O)c1cc(Cl)ccc1O` [Compound 125], the inhibition at 1 µg/mL was 94.6% and the inhibition at 10 µg/mL came out at 99.1%.
With `O=C(Nc1cc(C(F)(F)F)ccc1N1CCCC1)c1cc(Br)ccc1O` [Compound 126], the inhibition at 1 µg/mL was found to be 95.8% and the inhibition at 10 µg/mL amounted to 97.8%.
For the compound `O=C(Nc1cc(C(F)(F)F)ccc1N1CCOCC1)c1cc(Br)ccc1O` [Compound 127], the inhibition at 1 µg/mL was determined as 81.8% and the inhibition at 10 µg/mL came out at 86.4%.
As for `O=C(Nc1ccc(C(F)(F)F)cc1)c1cc(Cl)ccc1O` [Compound 128], the inhibition at 1 µg/mL was 87.2% and the inhibition at 10 µg/mL came to 95%.
Turning to `O=C(Nc1ccc(C(F)(F)F)cc1Cl)c1cc(Br)ccc1O` [Compound 129], the inhibition at 1 µg/mL worked out at 75.4% and the inhibition at 10 µg/mL was 85.8%.
For `O=C(Nc1ccccc1)c1cc(Br)ccc1O` [Compound 139], the inhibition at 1 µg/mL is -48.2% and the inhibition at 10 µg/mL amounted to 60.2%.
Turning to `O=C(Nc1cccc(Cl)c1)c1cc(Br)ccc1O` [Compound 140], the inhibition at 1 µg/mL is 94.2% and the inhibition at 10 µg/mL was determined as 96.7%.
Take `O=C(Nc1ccc(Cl)cc1)c1cc(Br)ccc1O` [Compound 141]: the inhibition at 1 µg/mL amounted to 83.3% and the inhibition at 10 µg/mL worked out at 96.4%.
Consider `O=C(Nc1cc(Cl)ccc1Cl)c1cc(Cl)ccc1O` [Compound 142], for which the inhibition at 1 µg/mL worked out at 95.1% and the inhibition at 10 µg/mL came to 96.9%.
As for `O=C(Nc1ccc(Cl)c(Cl)c1)c1cc(Br)ccc1O` [Compound 143], the inhibition at 1 µg/mL is 91.6% and the inhibition at 10 µg/mL was 93.8%.
For `O=C(Nc1cc(F)cc(F)c1)c1cc(Br)ccc1O` [Compound 144], the inhibition at 1 µg/mL came to 91.8% and the inhibition at 10 µg/mL was determined as 96.8%.
As for `O=C(Nc1cc(Cl)cc(Cl)c1)c1ccccc1O` [Compound 145], the inhibition at 1 µg/mL came to 92.9% and the inhibition at 10 µg/mL worked out at 95.5%.
For `O=C(Nc1cc(Cl)cc(Cl)c1)c1cc(F)ccc1O` [Compound 146] the same measures were 94.2% and 97%.
The matching figures for `O=C(Nc1cc(Cl)cc(Cl)c1)c1cc(Cl)ccc1O` [Compound 147]: 84.5% and 96.8%.
On to `O=C(Nc1cc(Cl)cc(Cl)c1)c1cc(Br)ccc1O` [Compound 148], for which the inhibition at 1 µg/mL came out at 77.1% and the inhibition at 10 µg/mL amounted to 92.8%.
`O=C(Nc1cc(Cl)cc(Cl)c1)c1cc(I)ccc1O` [Compound 149]: the inhibition at 1 µg/mL is 85.4% and the inhibition at 10 µg/mL came to 97.1%.
The matching figures for `O=C(Nc1cc(Cl)cc(Cl)c1)c1cc(Br)cc(Br)c1O` [Compound 150]: 91.4% and 95.1%.
As to `O=C(Nc1cc(Cl)cc(Cl)c1)c1ccc(Cl)cc1O` [Compound 151], the inhibition at 1 µg/mL is -42.8% and the inhibition at 10 µg/mL came to 71.8%.
In the case of `O=C(Nc1cc(Cl)cc(Cl)c1)c1cc([N+](=O)[O-])ccc1O` [Compound 152], the inhibition at 1 µg/mL is -56.8% and the inhibition at 10 µg/mL stood at 70.6%.
For `Cc1ccc(O)c(C(=O)Nc2cc(Cl)cc(Cl)c2)c1` [Compound 153] the same measures were 49.1% and 88.7%.
For `COc1ccc(O)c(C(=O)Nc2cc(Cl)cc(Cl)c2)c1` [Compound 154] the same measures were -31% and 48.2%.
The matching figures for `O=C(Nc1cc(Cl)c(Cl)c(Cl)c1)c1cc(Br)ccc1O` [Compound 155]: 85.6% and 94.1%.
With `O=C(Nc1cc(Cl)c(O)c(Cl)c1)c1cc(Br)ccc1O` [Compound 156], the inhibition at 1 µg/mL came out at 7.3% and the inhibition at 10 µg/mL came to 74.9%.
Consider `O=C(Nc1c(F)c(F)c(F)c(F)c1F)c1cc(Cl)ccc1O` [Compound 157], for which the inhibition at 1 µg/mL was determined as 86.2% and the inhibition at 10 µg/mL came out at 98.1%.
`O=C(Nc1cc([N+](=O)[O-])cc([N+](=O)[O-])c1)c1cc(Br)ccc1O` [Compound 158]: the inhibition at 1 µg/mL came to 91% and the inhibition at 10 µg/mL was 95.6%.
In the case of `CC(C)(C)c1ccc(C(C)(C)C)c(NC(=O)c2cc(Cl)ccc2O)c1` [Compound 159], the inhibition at 1 µg/mL is 89.1% and the inhibition at 10 µg/mL was 96.3%.
For the compound `Cc1cc(C)cc(NC(=O)c2cc(Br)ccc2O)c1` [Compound 161], the inhibition at 1 µg/mL turned out to be 86.3% and the inhibition at 10 µg/mL came out at 92.6%.
Take `CC(C)(C)c1cc(NC(=O)c2cc(Br)ccc2O)cc(C(C)(C)C)c1` [Compound 163]: the inhibition at 1 µg/mL worked out at 70.9% and the inhibition at 10 µg/mL stood at 82%.
Regarding `O=C(Nc1cccc(-c2ccccc2)c1)c1cc(Cl)ccc1O` [Compound 165], the inhibition at 1 µg/mL is 88.2% and the inhibition at 10 µg/mL came out at 95.1%.
`COc1ccc(-c2ccccc2)cc1NC(=O)c1cc(Cl)ccc1O` [Compound 166]: the inhibition at 1 µg/mL came out at 82.4% and the inhibition at 10 µg/mL is 97.9%.
Turning to `COc1ccc(OC)c(NC(=O)c2cc(Br)ccc2O)c1` [Compound 167], the inhibition at 1 µg/mL came out at 32.4% and the inhibition at 10 µg/mL worked out at 95.7%.
With `COc1cc(NC(=O)c2cc(Br)ccc2O)cc(OC)c1` [Compound 168], the inhibition at 1 µg/mL worked out at 38.3% and the inhibition at 10 µg/mL came out at 96.8%.
Turning to `CC(=O)c1cccc(NC(=O)c2cc(Cl)ccc2O)c1` [Compound 169], the inhibition at 1 µg/mL turned out to be 14.5% and the inhibition at 10 µg/mL came to 88.1%.
In the case of `O=C(Nc1nccs1)c1cc(Br)ccc1O` [Compound 180], the inhibition at 1 µg/mL is -23.1% and the inhibition at 10 µg/mL was found to be 42.8%.
